Measurements: patent US11542255B2, “Sulfonylureas and sulfonylthioureas as NLRP3 inhibitors” (Inflazome Limited, priority 2017, dated 2023)
Where a name gives a salt, the structure may show the parent alone.

Experiments:
NLRP3 [1] = target: T1, NLRP3 (Homo sapiens, UniProt Q96P20); test: THP-1 cells pyroptosis assay (LPS + nigericin, resazurin readout); assay type: cell-based; design: Seed THP-1 cells (25,000 cells/well) containing 1.0 μg/ml LPS in 40 μl of RPMI medium; host or cells: THP-1 cells; conditions: NLRP3 inhibitory activity, 1.0 μg/ml LPS, 5 μM nigericin
T1 sequence (Q96P20 whole entry): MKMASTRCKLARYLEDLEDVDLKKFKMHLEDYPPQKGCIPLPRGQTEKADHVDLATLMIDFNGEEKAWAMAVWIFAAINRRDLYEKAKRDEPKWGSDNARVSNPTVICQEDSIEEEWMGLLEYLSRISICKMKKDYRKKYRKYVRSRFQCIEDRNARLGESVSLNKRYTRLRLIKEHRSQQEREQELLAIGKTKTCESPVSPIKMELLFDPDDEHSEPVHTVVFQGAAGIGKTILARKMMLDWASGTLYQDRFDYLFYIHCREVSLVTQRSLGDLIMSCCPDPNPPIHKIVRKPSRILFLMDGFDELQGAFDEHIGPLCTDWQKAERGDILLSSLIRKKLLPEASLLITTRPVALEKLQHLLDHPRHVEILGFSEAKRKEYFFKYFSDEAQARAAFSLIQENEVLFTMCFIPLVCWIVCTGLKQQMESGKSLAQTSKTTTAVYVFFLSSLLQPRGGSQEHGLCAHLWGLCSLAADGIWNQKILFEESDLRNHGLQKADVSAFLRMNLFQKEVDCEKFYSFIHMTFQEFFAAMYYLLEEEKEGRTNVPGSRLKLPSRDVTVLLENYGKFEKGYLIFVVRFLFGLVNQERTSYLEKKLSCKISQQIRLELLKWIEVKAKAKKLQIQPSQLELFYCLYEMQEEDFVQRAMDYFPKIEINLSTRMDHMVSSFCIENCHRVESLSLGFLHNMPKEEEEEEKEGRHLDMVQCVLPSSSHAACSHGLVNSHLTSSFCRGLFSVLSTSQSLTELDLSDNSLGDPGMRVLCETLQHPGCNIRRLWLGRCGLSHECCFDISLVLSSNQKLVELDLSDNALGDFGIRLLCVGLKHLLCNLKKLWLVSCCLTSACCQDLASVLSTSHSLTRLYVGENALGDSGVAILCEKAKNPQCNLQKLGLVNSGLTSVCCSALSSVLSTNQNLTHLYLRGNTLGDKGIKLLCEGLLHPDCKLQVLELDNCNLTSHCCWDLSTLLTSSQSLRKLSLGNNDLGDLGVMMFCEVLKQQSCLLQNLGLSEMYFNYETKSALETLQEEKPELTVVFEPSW
How it was run: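 LPS-primed (1 μg/ml) THP-1 cells, 25,000/well in serum-free RPMI, given compound (8-point half-log, 10 μM top; 0.1% DMSO) for 3 h at 37 °C, then nigericin 5 μM for 1 h. Viability by resazurin (100 μM, 1-2 h), Ex 560/Em 590 nm; IC50 from 4-parameter variable-slope fit.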

NLRP3 [2] = target: T1, NLRP3; test: Human whole blood IL1β release assay (LPS + nigericin, AlphaLisa IL-1β); assay type: cell-based; design: Human whole blood in Li-heparin tubes was obtained from healthy donors from a volunteer donor panel; from tissue; host or cells: human whole blood from healthy donors; conditions: NLRP3 inhibitory activity, 1 μg/ml LPS, 10 μM nigericin, IL-1β release, read-out: HWB IC50
Method: For systemic delivery, the ability to inhibit NLRP3 when the compounds are present within the bloodstream is of great importance. For this reason, the NLRP3 inhibitory activity of a number of compounds in human whole blood was investigated in accordance with the following protocol.
Human whole blood in Li-heparin tubes was obtained from healthy donors from a volunteer donor panel. • 1. Plate out 80 μl of whole blood containing 1 μg/ml of LPS in 96-well, clear bottom cell culture plate (Corning #3585) • 2. Add 10 μl compound (8 points half-log dilution with 10 μM top dose) or vehicle (DMSO 0.1% FAC) to the appropriate wells • 3. Incubate for 3 hrs at 37° C., 5% CO2 • 4. Add 10 μl Nigericin (Sigma #N7143) (10 μM FAC) to all wells • 5. Incubate for 1 hr at 37° C., 5% CO2 • 6. At the end of the incubation period, spin plates at 300×g for 5 mins to pellet cells and remove 20 μl of supernatant and add to 96-well v-bottom plates for IL-1β analysis (note: these plates containing the supernatants can be stored at −80° C. to be analysed at a later date) • 7. IL-1β was measured according to the manufacturer protocol (Perkin Elmer-AlphaLisa IL-1β Kit AL220F-5000) • 8. IC50 data is fitted to a non-linear regression equation (log inhibitor vs response-variable slope 4-parameters)

Row | IC50 (NLRP3 [1]) [nM] | IC50 (NLRP3 [2]) [nM] | SMILES
1 | < 40 | < 400 | CCC(c1cc(S(=O)(=O)NC(=O)Nc2c3c(cc4c2CCC4)CCC3)nn1C)N(C)C (stereo not drawn) [Example 74, 5-(1-(Dimethylamino)propyl)-N-((1,2,3,5,6,7-hexahydro-s-indacen-4-yl)carbamoyl)-1-methyl-1H-pyrazole-3-sulfonamide]
2 | 160 to 640 | 800 to 1600 | CN1CC(O)(c2cc(S(=O)(=O)NC(=O)Nc3c4c(cc5c3CCC5)CCC4)nn2C)C1 [Example 75, N-((1,2,3,5,6,7-Hexahydro-s-indacen-4-yl)carbamoyl)-5-(3-hydroxy-1-methylazetidin-3-yl)-1-methyl-1H-pyrazole-3-sulfonamide]
3 | 40 to 160 | 400 to 800 | Cn1nc(S(=O)(=O)NC(=O)Nc2c3c(cc4c2CCC4)CCC3)cc1CN1CCCC1 [Example 78, N-((1,2,3,5,6,7-Hexahydro-s-indacen-4-yl)carbamoyl)-1-methyl-5-(pyrrolidin-1-ylmethyl)-1H-pyrazole-3-sulfonamide, Sodium Salt]
4 | 640 to 2560 | 800 to 1600 | CC(C)c1cc(F)cc(C(C)C)c1NC(=O)NS(=O)(=O)c1cc(CN2CC(F)C2)n(C)n1 [Example 79, N-((4-Fluoro-2,6-diisopropylphenyl)carbamoyl)-5-((3-fluoroazetidin-1-yl)methyl)-1-methyl-1H-pyrazole-3-sulfonamide]
5 | 160 to 640 | 1600 to 3200 | Cn1nc(S(=O)(=O)NC(=O)Nc2c3c(cc4c2CCC4)CCC3)cc1CN1CC(F)C1 [Example 80, 5-((3-Fluoroazetidin-1-yl)methyl)-N-((1,2,3,5,6,7-hexahydro-s-indacen-4-yl)carbamoyl)-1-methyl-1H-pyrazole-3-sulfonamide]
6 | 160 to 640 | < 400 | CC(C)c1cc(F)cc(C(C)C)c1NC(=O)NS(=O)(=O)c1cc(CN2CCCC2)n(C)n1 [Example 81, N-((4-Fluoro-2,6-diisopropylphenyl)carbamoyl)-1-methyl-5-(pyrrolidin-1-ylmethyl)-1H-pyrazole-3-sulfonamide]
7 | 40 to 160 | 800 to 1600 | CCN(CC)Cc1cc(S(=O)(=O)NC(=O)Nc2c3c(cc4c2CCC4)CCC3)nn1C [Example 82, 5-((Diethylamino)methyl)-N-((1,2,3,5,6,7-hexahydro-s-indacen-4-yl)carbamoyl)-1-methyl-1H-pyrazole-3-sulfonamide, Sodium Salt]
8 | 640 to 2560 | 400 to 800 | CCN(CC)Cc1cc(S(=O)(=O)NC(=O)Nc2c(C(C)C)cc(F)cc2C(C)C)nn1C [Example 83, 5-((Diethylamino)methyl)-N-((4-fluoro-2,6-diisopropylphenyl)carbamoyl)-1-methyl-1H-pyrazole-3-sulfonamide, sodium Salt]
9 | 160 to 640 | < 400 | CC(C)c1cc(F)cc(C(C)C)c1NC(=O)NS(=O)(=O)c1cc(CN(C)C(C)C)n(C)n1 [Example 90, N-((4-Fluoro-2,6-diisopropylphenyl)carbamoyl)-5-((isopropyl(methyl)amino)methyl)-1-methyl-1H-pyrazole-3-sulfonamide, sodium Salt]
10 | < 40 | 800 to 1600 | CN(C)C(c1cc(S(=O)(=O)NC(=O)Nc2c3c(cc4c2CCC4)CCC3)nn1C)C(F)(F)F (stereo not drawn) [Example 95, 5-(˜(Dimethylamino)-2,2,2-trifluoroethyl)-N-((1,2,3,5,6,7-hexahydro-s-indacen-4-yl)carbamoyl)-1-methyl-1H-pyrazole-3-sulfonamide]
11 | 40 to 160 | 3200 to 10000 | CC(C)n1nc(S(=O)(=O)NC(=O)Nc2c3c(cc4c2CCC4)CCC3)cc1CN(C)CC(F)(F)F [Example 96, N-((1,2,3,5,6,7-Hexahydro-s-indacen-4-yl)carbamoyl)-1-isopropyl-5-((methyl(2,2,2-trifluoroethyl)amino)methyl)-1H-pyrazole-3-sulfonamide]
12 | 40 to 160 | 400 to 800 | COCCN(CCO)C(=O)c1cc(S(=O)(=O)NC(=O)Nc2c3c(cc4c2CCC4)CCC3)nn1C [Example 102, 3-(N-((1,2,3,5,6,7-Hexahydro-s-indacen-4-yl)carbamoyl)sulfamoyl)-N-(2-hydroxyethyl)-N-(2-methoxyethyl)-1-methyl-1H-pyrazole-5-carboxamide, Partial ammonium Salt]
13 | 160 to 640 | 800 to 1600 | CN(C)C1(c2cc(S(=O)(=O)NC(=O)Nc3c4c(cc5c3CCC5)CCC4)nn2C)COC1 [Example 115, 5-(3-(Dimethylamino)oxetan-3-yl)-N-((1,2,3,5,6,7-hexahydro-s-indacen-4-yl)carbamoyl)-1-methyl-1H-pyrazole-3-sulfonamide]
14 | 160 to 640 | < 400 | CC(C)c1cc(F)cc(C(C)C)c1NC(=O)NS(=O)(=O)c1cc(CN(C)CCO)n(C)n1 [Example 116, N-((4-Fluoro-2,6-diisopropylphenyl)carbamoyl)-5-(((2-hydroxyethyl)(methyl)amino)methyl)-1-methyl-1H-pyrazole-3-sulfonamide]
15 | 40 to 160 | < 400 | CN(CCO)Cc1cc(S(=O)(=O)NC(=O)Nc2c3c(cc4c2CCC4)CCC3)nn1C [Example 117, N-((1,2,3,5,6,7-Hexahydro-s-indacen-4-yl)carbamoyl)-5-(((2-hydroxyethyl)(methyl)amino)methyl)-1-methyl-1H-pyrazole-3-sulfonamide]
16 | 160 to 640 | 1600 to 3200 | COCCN(C)Cc1cc(S(=O)(=O)NC(=O)Nc2c3c(cc4c2CCC4)CCC3)nn1C [Example 119, N-((1,2,3,5,6,7-Hexahydro-s-indacen-4-yl)carbamoyl)-5-(((2-methoxyethyl)(methyl)amino)methyl)-1-methyl-1H-pyrazole-3-sulfonamide, Sodium Salt]
17 | 640 to 2560 | 400 to 800 | CC(C)c1cc(F)cc(C2CCOCC2)c1NC(=O)NS(=O)(=O)c1cc(C(=O)N(C)C)n(C)n1 [Example 126, 3-(N-((4-Fluoro-2-isopropyl-6-(tetrahydro-2H-pyran-4-yl)phenyl)carbamoyl)sulfamoyl)-N,N,1-trimethyl-1H-pyrazole-5-carboxamide, Sodium Salt]
18 | 640 to 2560 | < 400 | CC(C)c1cc(F)cc(-c2cnn(C)c2)c1NC(=O)NS(=O)(=O)c1cc(C(=O)N(C)C)n(C)n1 [Example 128, 3-(N-((4-Fluoro-2-isopropyl-6-(1-methyl-1H-pyrazol-4-yl)phenyl)carbamoyl)sulfamoyl)-N,N,1-trimethyl-1H-pyrazole-5-carboxamide, Sodium Salt]
19 | 40 to 160 | < 400 | CC(C)c1cc(F)cc(-c2cccnc2)c1NC(=O)NS(=O)(=O)c1cc(C(=O)N(C)C)n(C)n1 [Example 134, 3-(N-((4-Fluoro-2-isopropyl-6-(pyridin-3-yl)phenyl)carbamoyl)sulfamoyl)-N,N,1-trimethyl-1H-pyrazole-5-carboxamide, sodium Salt]
20 | 160 to 640 | < 400 | CC(C)c1cc(F)cc(-c2cncnc2)c1NC(=O)NS(=O)(=O)c1cc(C(=O)N(C)C)n(C)n1 [Example 135, 3-(N-((4-Fluoro-2-isopropyl-6-(pyrimidin-5-yl)phenyl)carbamoyl)sulfamoyl)-N,N,1-trimethyl-1H-pyrazole-5-carboxamide, sodium Salt]
21 | 40 to 160 | 400 to 800 | CCn1nc(S(=O)(=O)NC(=O)Nc2c(-c3cccc(C#N)c3)ccc3c2CCC3)cc1CN(C)C [Example 173]
22 | 2560 to 10000 | 3200 to 10000 | COCCN(CCOC)C(=O)c1cc(S(=O)(=O)NC(=O)Nc2c(-c3ccnc(OC(C)C)c3)cc(F)cc2C(C)C)nn1C [Example 174, 3-(N-((4-Fluoro-2-(2-isopropoxypyridin-4-yl)-6-isopropyl-phenyl)carbamoyl)sulfamoyl)-N,N-bis(2-methoxyethyl)-1-methyl-1H-pyrazole-5-carboxamide, sodium salt]
23 | 160 to 640 | < 400 | COCCN(CCOC)C(=O)c1cc(S(=O)(=O)NC(=O)Nc2c(-c3ccnc(OC)c3)ccc3c2CCC3)nn1C [Example 175, N,N-Bis(2-methoxyethyl)-3-(N-((5-(2-methoxypyridin-4-yl)-2,3-dihydro-1H-inden-4-yl)carbamoyl)sulfamoyl)-1-methyl-1H-pyrazole-5-carboxamide, Sodium Salt]
24 | 160 to 640 | 1600 to 3200 | CC(C)Oc1cc(-c2cc(F)cc(C(C)C)c2NC(=O)NS(=O)(=O)c2cc(C(=O)N(C)C)n(C)n2)ccn1 [Example 176, 3-(N-((4-Fluoro-2-(2-isopropoxypyridin-4-yl)-6-isopropyl-phenyl)carbamoyl)sulfamoyl)-N,N,1-trimethyl-1H-pyrazole-5-carboxamide, sodium salt]
